The values below come from ChEMBL document CHEMBL1201862, “PubChem BioAssay data set” (2004).

SMILES strings stand for the structures.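 Values below derive from 48-hour exposures of cells grown in 96-well plates, with endpoints linearly interpolated between the two concentrations bracketing the appropriate inhibition level. Abbreviation: GI50, concentration required for 50% inhibition of growth.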 Active and inactive are the calls of the source. Rule as the data show it: active = GI50 up to about 1.1 µM and inactive = higher. Bounds are passed on as bounds.

Some test systems named below: HL-60; UACC-257; OVCAR-4; U-251; UACC-62; MOLT-4; SK-MEL-5; LOX IMVI; Malme-3M; ACHN; A549; SNB-75; SR; CCRF-CEM; NCI-H460; SK-OV-3; EKVX; HCT-15; RPMI-8226; K562.
Common to all, as to experiment: NCI anticancer screen, dose series, 48 h

Consider `CSc1nc2nc(C)c(C)nc2c(=O)[nH]1`, for which the GI50 in the experiment on HL-60 was > 100 µM (inactive); in the experiment on UACC-257, > 100 µM (inactive); in the experiment on OVCAR-4, > 100 µM (inactive); in the experiment on U-251 it was > 100 µM (inactive); in the experiment with UACC-62, > 100 µM (inactive); with MOLT-4, 51.2 µM (inactive). For the same compound, the GI50 in the experiment on SK-MEL-5, with LOX IMVI, in the experiment on Malme-3M, with ACHN, in the experiment on A549 and in the experiment on SNB-75 was > 100 µM (inactive) throughout. The GI50 with SR is > 100 µM (inactive); in the experiment with CCRF-CEM, > 100 µM (inactive); in the experiment on NCI-H460 it was > 100 µM (inactive); with SK-OV-3, > 100 µM (inactive); with EKVX, > 100 µM (inactive); with HCT-15, greater than 100 µM. In addition, the GI50 in the experiment with RPMI-8226 and with K562 was > 100 µM (inactive) throughout.
Take `O=c1[nH]nc(-c2ccccc2)n1/N=C/c1ccccc1Cl`: the GI50 is 19.5 µM (inactive) with HL-60; 64 µM (inactive) in the experiment with UACC-257; 15.2 µM (inactive) with OVCAR-4; 38.5 µM (inactive) in the experiment with U-251; 20 µM (inactive) in the experiment with UACC-62; 22.4 µM (inactive) in the experiment with MOLT-4. Moreover, the GI50 in the experiment with SK-MEL-5 was 18.6 µM (inactive); with LOX IMVI, 25.1 µM (inactive); in the experiment on Malme-3M it was 20.3 µM (inactive); in the experiment with ACHN, 52.6 µM (inactive); with A549 it was 34.1 µM (inactive); with SNB-75, 36.5 µM (inactive). The GI50 is 30.3 µM (inactive) with SR; 28.1 µM (inactive) in the experiment on CCRF-CEM; 13 µM (inactive) with NCI-H460; 48.8 µM (inactive) in the experiment with SK-OV-3; 45.9 µM (inactive) in the experiment on EKVX; 31.6 µM in the experiment on HCT-15. The GI50 in the experiment with RPMI-8226 is 21.1 µM (inactive); in the experiment on K562, 31.3 µM (inactive).
Turning to `C=C1CC(C)(COc2ccc3c(C)c(C)c(=O)oc3c2C)OC1=O` (stereo not given), the GI50 in the experiment with HL-60 is 0.19 µM (active); with UACC-257, 2.09 µM (inactive); with OVCAR-4, 4.3 µM (inactive); in the experiment on U-251, 6.56 µM (inactive); in the experiment with UACC-62, 1.27 µM (inactive); in the experiment on MOLT-4, 1.08 µM (active). In addition, the GI50 was 1.68 µM (inactive) in the experiment with SK-MEL-5; 1.2 µM (inactive) in the experiment with LOX IMVI; 1.39 µM (inactive) in the experiment with Malme-3M; 2.33 µM (inactive) in the experiment with ACHN; 7.67 µM (inactive) in the experiment on A549; 3.66 µM (inactive) in the experiment with SNB-75. In addition, the GI50 in the experiment on SR is 0.995 µM (active); in the experiment on CCRF-CEM it was 0.411 µM (active); in the experiment on NCI-H460, 5.33 µM (inactive); in the experiment on SK-OV-3, 3.05 µM (inactive); with EKVX, 5.52 µM (inactive); in the experiment with HCT-15, 1.56 µM. Moreover, the GI50 in the experiment with RPMI-8226 is 0.594 µM (active); in the experiment on K562, 0.811 µM (active).
For the compound `COC(=O)Cc1c([C@H]2[C@H](CC(=O)OC)c3ccccc3N2C(=O)C(F)(F)F)[nH]c2ccccc12`, the GI50 in the experiment with HL-60 was 40.3 µM (inactive); in the experiment on UACC-257 it was 29.1 µM (inactive); in the experiment on OVCAR-4, 56.6 µM (inactive); with U-251 it was 13.6 µM (inactive); with UACC-62, 13.6 µM (inactive); in the experiment with MOLT-4 it was 9.02 µM (inactive). The GI50 with SK-MEL-5 was 11.6 µM (inactive); in the experiment on LOX IMVI, 26.4 µM (inactive); in the experiment on Malme-3M it was 29.9 µM (inactive); in the experiment with ACHN it was 29.8 µM (inactive); in the experiment on A549, 31.3 µM (inactive); in the experiment on SNB-75 it was 29.2 µM (inactive). In addition, the GI50 with SR was 14.7 µM (inactive); with CCRF-CEM it was 14.6 µM (inactive); in the experiment with NCI-H460, 22.4 µM (inactive); in the experiment on SK-OV-3, 28.5 µM (inactive); in the experiment with EKVX, 26.8 µM (inactive); in the experiment with HCT-15, 8.18 µM. Moreover, the values for the GI50 in the experiment with RPMI-8226 and in the experiment with K562 were 17.7 µM (inactive) and 11.1 µM (inactive), respectively.
As to `COc1ccc(OC)c(/C=C/NC=O)c1`, the GI50 in the experiment on HL-60, with UACC-257, in the experiment on OVCAR-4, in the experiment on U-251, in the experiment on UACC-62 and in the experiment with MOLT-4 was > 100 µM (inactive) each time. The GI50 in the experiment on SK-MEL-5 is > 100 µM (inactive); in the experiment on LOX IMVI, > 100 µM (inactive); in the experiment on Malme-3M, > 100 µM (inactive); in the experiment on ACHN, > 100 µM (inactive); in the experiment with A549, > 100 µM (inactive); with SNB-75, > 51.6 µM (inactive). In addition, the GI50 was 22 µM (inactive) in the experiment with SR; > 100 µM (inactive) in the experiment on CCRF-CEM; > 100 µM (inactive) in the experiment on NCI-H460; > 100 µM (inactive) in the experiment on SK-OV-3; > 100 µM (inactive) in the experiment on EKVX; greater than 100 µM in the experiment on HCT-15. Also, the GI50 with RPMI-8226 and in the experiment on K562 was > 100 µM (inactive) each time.
As to `COc1ccc(-c2csc3c2[N+]2(C)C=CC=C2C3N2CCCC2)cc1` (stereo not given), the GI50 in the experiment on HL-60 was 3.61 µM (inactive); in the experiment with UACC-257, 7.4 µM (inactive); with OVCAR-4, 46.8 µM (inactive); in the experiment on U-251 it was 7.01 µM (inactive); in the experiment with UACC-62, 15.5 µM (inactive); in the experiment on MOLT-4 it was 27.5 µM (inactive). Moreover, the GI50 with SK-MEL-5 was 8.59 µM (inactive); in the experiment with LOX IMVI, 35 µM (inactive); in the experiment on Malme-3M, 12.2 µM (inactive); in the experiment on ACHN it was 44.8 µM (inactive); in the experiment on A549, 39.9 µM (inactive); in the experiment with SNB-75, 4.12 µM (inactive). Further, the GI50 is 5.28 µM (inactive) in the experiment on SR; 28.3 µM (inactive) in the experiment with CCRF-CEM; 16.1 µM (inactive) in the experiment on NCI-H460; 49.1 µM (inactive) in the experiment with SK-OV-3; 20.5 µM (inactive) with EKVX; 37.9 µM in the experiment with HCT-15. Also, the GI50 with RPMI-8226 was 8.34 µM (inactive); in the experiment with K562 it was 6.61 µM (inactive).
Regarding `CCOc1ccc(NC(=O)C(=O)CC(=O)c2c(C)[n+]([O-])c3ccccc3[n+]2[O-])cc1`, the GI50 in the experiment with HL-60 was > 100 µM (inactive); in the experiment with UACC-257 it was > 100 µM (inactive); in the experiment with OVCAR-4 it was > 100 µM (inactive); in the experiment with U-251, > 100 µM (inactive); with UACC-62, > 100 µM (inactive); with MOLT-4 it was 81.5 µM (inactive). Further, the GI50 with SK-MEL-5, in the experiment with LOX IMVI, with Malme-3M, in the experiment on ACHN, in the experiment on A549 and in the experiment with SNB-75 was > 100 µM (inactive) throughout. Moreover, the GI50 with SR was 64.9 µM (inactive); in the experiment with CCRF-CEM, > 100 µM (inactive); with NCI-H460, > 100 µM (inactive); in the experiment on SK-OV-3, > 100 µM (inactive); in the experiment on EKVX it was > 100 µM (inactive); with HCT-15, greater than 100 µM. In addition, the GI50 in the experiment on RPMI-8226 and in the experiment with K562 was > 100 µM (inactive) in each case.
As to `CCCCCCCC(=O)OCC1OC(n2cc(F)c(=O)[nH]c2=O)C(NC(=O)OCc2ccccc2)C(OC(=O)CCCCCCC)C1O` (stereo not given), the GI50 in the experiment on HL-60 is 16.5 µM (inactive); with UACC-257, 39.7 µM (inactive); in the experiment with OVCAR-4 it was 10.5 µM (inactive); with U-251 it was 22.9 µM (inactive); with UACC-62, 19.5 µM (inactive); with MOLT-4, 9.93 µM (inactive). The GI50 was 0.309 µM (active) in the experiment on SK-MEL-5; 15.1 µM (inactive) with LOX IMVI; 17.9 µM (inactive) with Malme-3M; 39.2 µM (inactive) with ACHN; 25.1 µM (inactive) with A549; 24.5 µM (inactive) in the experiment with SNB-75. Also, the GI50 was 16.7 µM (inactive) in the experiment with SR; 17.5 µM (inactive) in the experiment with CCRF-CEM; 35.5 µM (inactive) in the experiment with NCI-H460; > 100 µM (inactive) with SK-OV-3; 42.5 µM (inactive) in the experiment with EKVX; 26.5 µM in the experiment on HCT-15. Further, the GI50 in the experiment on RPMI-8226 was 16.6 µM (inactive); in the experiment on K562, 15.6 µM (inactive).
